Converted amounts (≈) assume the structure as drawn. Like-named read-outs stand apart in the source and are kept apart here.
Legend:
[1] = CCK-8 assay for cytotoxicity; type: cell-based, human; details: human, HepG2 cells; HepG2 cell viability, 48 h; read-out: CC50
Experimental: (§1) HepG2 cells (6 × 10^3) and HEK293T cells (4 × 10^3) were seeded into 96-well plates in 90 μL of DMEM medium containing 10% FBS per well. All test compounds were formulated as 10 mM stock solutions in DMSO (final concentration ≤ 0.5%). After overnight incubation, the test compound stock solution was diluted with DMEM medium containing 10% FBS to every target concentration, and 10 μL of each was added to each well. Three parallel experiments were set up for each compound. After incubation for 48 h, 10 μL of cell counting kit-8 (CCK-8) reagent was added to each well in sequence according to the manufacturer’s instructions. After incubating in a 37 °C incubator for 1–2 h, the absorbance was measured at a wavelength of 450 nm, and detected by ThermoScientific Multiskan FC (ThermoFisher Scientific, USA). This experiment was independently repeated three times. The data were processed by GraphPad Prism.

HepG2 cells = test: CCK-8 assay for cytotoxicity; type: cell-based, human
Experimental: as §1

[2] = CCK-8 assay for cytotoxicity; type: cell-based, human; details: human, HEK293T cells, HEK293T cell viability
Experimental: as §1, with “All test compounds were formulated as 10 mM stock solutions in DMSO (final concentration ≤ 0.5%).” left out, “After incubating in a 37 °C incubator for 1–2 h, the absorbance was measured at a wavelength of 450 nm, and detected by ThermoScientific Multiskan FC (ThermoFisher Scientific, USA).” left out

S. aureus = test: MIC, broth microdilution; type: cell-based, Staphylococcus aureus
Summary of the method: (§2)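 Read-out is the lowest concentration without observed growth after 16–20 h at 37 °C, using the CLSI broth microdilution method.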

S. pneumoniae = test: MIC, broth microdilution; type: cell-based, Streptococcus pneumoniae
Summary of the method: as §2

M. catarrhalis = test: MIC, broth microdilution; type: cell-based, Moraxella catarrhalis; details: Moraxella catarrhalis; M. catarrhalis 13L332, Ery-S; read-out: MIC
Summary of the method: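 Compounds were diluted 2-fold in cation-adjusted Mueller-Hinton broth and mixed with bacteria to a final 5 × 10^5 CFU/mL. Plates were then incubated 16–20 h at 37 °C and growth was scored by eye, per CLSI guidelines.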

S. pyogenes = test: MIC, broth microdilution; type: cell-based, Streptococcus pyogenes
Summary of the method: as §2

WT S. aureus ribosomes = test: PURE in vitro translation inhibition assay; type: biochemical, Staphylococcus aureus; details: mean ± SD
Experimental: (§3) To validate the in vitro activity of our compounds, we employed an in vitro reconstituted E. coli Protein synthesis Using a Recombinant Elements (PURE) translation system, substituting E. coli ribosomes with the purified S. aureus ribosomes.
(§4) 5 μL of PURE reaction mix that translates a gene encoding the Nanoluc luciferase was set up in the presence or absence of tested compounds. Protein synthesis was initiated by incubating reactions at 37 °C for 60 min and stopped by placing on ice for 5 min. Luciferase activity was quantified using the Nano-Glo luciferase assay system and read on a GloMax 20/20 luminometer (Promega, USA). For each compound, the in vitro translation inhibition assay was performed in three biological triplicates over a range of concentrations from 0.001 μM to 1000 μM. A compound-free control was used to normalize luminescence measurements. The calculated luminescence percentages were plotted against compound concentrations on a semilog scale using GraphPad Prism.

[3] = system: 15B196 S. aureus ribosomes (A2058-methylated); test: PURE in vitro translation inhibition assay; type: biochemical, Staphylococcus aureus; details: mean ± SD
Experimental: as §3, §4

[4] = Staphylococcus aureus, MRSA, MRSA (13)
[5] = Staphylococcus aureus, i-MLSB S. aureus (10)

CC[C@H]1OC(=O)[C@H](C)[C@@H](OC(=O)NCCCOCCC#Cc2ccc3c(=O)c(C(=O)O)cn(C)c3c2)[C@H](C)[C@@H](O[C@@H]2O[C@H](C)C[C@H](N(C)C)[C@H]2O)[C@](C)(OC)C[C@@H](C)C(=O)[C@H](C)[C@H]2NC(=O)O[C@@]21C [MCX-190]
CC50 at 48 h [1]: > 200000 nM
cytotoxicity at 5 μM (HepG2 cells; HepG2, 5 μM, 48 h): significantly reduced cytotoxicity compared to TcmX
CC50 (cytotoxicity) (HepG2 cells; human HepG2 and HEK293T cells): essentially non-cytotoxic
CC50 at 48 h [2]: > 100000 nM
MIC (S. aureus; S. aureus 15B196, Clinical, MRSA, c-ermB): 8 µg/mL (≈ 8.25 µM)
MIC (S. aureus; S. aureus 21B200, Clinical, MRSA, c-ermB): 8 µg/mL (≈ 8.25 µM)
MIC (S. aureus; S. aureus 21B207, Clinical, MRSA, c-ermB): 8 µg/mL (≈ 8.25 µM)
MIC (S. aureus; S. aureus 21B212, Clinical, MSSA, i-ermC): 0.25 µg/mL (≈ 0.258 µM)
MIC (S. aureus; S. aureus 21C173, Clinical, MSSA, i-ermC): 0.25 µg/mL (≈ 0.258 µM)
MIC (S. aureus; S. aureus 21C174, Clinical, MSSA, c-ermB): 1 µg/mL (≈ 1.03 µM)
MIC (S. aureus; S. aureus 21C187, Clinical, MRSA, i-ermA): 0.25 µg/mL (≈ 0.258 µM)
MIC (S. aureus; S. aureus 21D112, Clinical, MSSA, c-ermB): 64 µg/mL (≈ 66 µM)
MIC (S. aureus; S. aureus 21D115, Clinical, MSSA, i-ermC): 0.5 µg/mL (≈ 0.516 µM)
MIC (S. aureus; S. aureus 21F198, Clinical, MRSA, c-ermB): 8 µg/mL (≈ 8.25 µM)
MIC (S. aureus; S. aureus 21F206, Clinical, MSSA, c-ermB): 32 µg/mL (≈ 33 µM)
MIC (S. aureus; S. aureus 21F207, Clinical, MRSA, i-ermC): 0.25 µg/mL (≈ 0.258 µM)
MIC (S. aureus; S. aureus 21K194, Clinical, MSSA, i-ermC): 0.25 µg/mL (≈ 0.258 µM)
MIC (S. aureus; S. aureus 21N354, Clinical, MRSA, c-ermB): 8 µg/mL (≈ 8.25 µM)
MIC (S. aureus; S. aureus 21P191, Clinical, MSSA, c-ermC): 64 µg/mL (≈ 66 µM)
MIC (S. aureus; S. aureus 21P404, Clinical, MSSA, i-ermC): 0.5 µg/mL (≈ 0.516 µM)
MIC (S. aureus; S. aureus 21P407, Clinical, MRSA, c-ermB): 16 µg/mL (≈ 16.5 µM)
MIC (S. aureus; S. aureus 21Q253, Clinical, MRSA, c-ermB): 4 µg/mL (≈ 4.13 µM)
MIC (S. aureus; S. aureus 21R216, Clinical, MSSA, c-ermC): 64 µg/mL (≈ 66 µM)
MIC (S. aureus; S. aureus 21T141, Clinical, MRSA, c-ermB): 4 µg/mL (≈ 4.13 µM)
MIC (S. aureus; S. aureus 21X388, Clinical, i-ermA (MRSA in Table S9, MSSA in Fig. 2a)): 0.25 µg/mL (≈ 0.258 µM)
MIC (S. aureus; S. aureus 21Y223, Clinical, MRSA, i-ermC): 0.5 µg/mL (≈ 0.516 µM)
MIC (S. aureus; S. aureus ATCC29213): 0.25 µg/mL (≈ 0.258 µM)
MIC (S. aureus; S. aureus PU32, Clinical, MRSA, i-ermA): 0.25 µg/mL (≈ 0.258 µM)
MIC50 (S. aureus; Staphylococcus aureus, All S. aureus (24)): 1 µg/mL (≈ 1.03 µM)
MIC50 (S. aureus; [4]): 4 µg/mL (≈ 4.13 µM)
MIC90 (S. aureus; [4]): 8 µg/mL (≈ 8.25 µM)
MIC50 (S. aureus; Staphylococcus aureus, MSSA, MSSA (10)): 0.5 µg/mL (≈ 0.516 µM)
MIC (S. aureus; Staphylococcus aureus, S. aureus 15B196, c-ermB, read-out: MIC): 8 µg/mL (≈ 8.25 µM)
MIC (S. aureus; Staphylococcus aureus, S. aureus PU32, i-ermA, read-out: MIC): 0.5 µg/mL (≈ 0.516 µM)
MIC50 (S. aureus; Staphylococcus aureus, c-MLSB (constitutive) S. aureus (13)): 8 µg/mL (≈ 8.25 µM)
MIC90 (S. aureus; Staphylococcus aureus, c-MLSB S. aureus (13)): 64 µg/mL (≈ 66 µM)
MIC50 (S. aureus; [5]): 0.25 µg/mL (≈ 0.258 µM)
MIC90 (S. aureus; [5]): 0.5 µg/mL (≈ 0.516 µM)
MIC90 (S. aureus; Staphylococcus aureus, MSSA (10)): 64 µg/mL (≈ 66 µM)
MIC (S. pneumoniae; S. pneumoniae 07P390, c-ermB, listed as 95g): 0.06 µg/mL (≈ 0.0619 µM)
MIC (S. pneumoniae; S. pneumoniae 21C315, Clinical, c-ermB): 0.12 µg/mL (≈ 0.124 µM)
MIC (S. pneumoniae; S. pneumoniae 21D016, Clinical, c-ermB, mef): 0.5 µg/mL (≈ 0.516 µM)
MIC (S. pneumoniae; S. pneumoniae 21D020, Clinical, c-ermB, mef): 0.25 µg/mL (≈ 0.258 µM)
MIC (S. pneumoniae; S. pneumoniae 21M277, Clinical, c-ermB): 0.5 µg/mL (≈ 0.516 µM)
MIC (S. pneumoniae; S. pneumoniae 21Q352, Clinical, i-MLSB): 0.25 µg/mL (≈ 0.258 µM)
MIC (S. pneumoniae; S. pneumoniae 21Q353, Clinical, i-MLSB): 0.25 µg/mL (≈ 0.258 µM)
MIC (S. pneumoniae; S. pneumoniae 21W257, Clinical, c-ermB, mef): 0.5 µg/mL (≈ 0.516 µM)
MIC (S. pneumoniae; S. pneumoniae 21X435, Clinical): 0.016 µg/mL (≈ 0.0165 µM)
MIC (S. pneumoniae; S. pneumoniae ATCC49619): 0.016 µg/mL (≈ 0.0165 µM)
MIC (S. pneumoniae; S. pneumoniae ATCC49619, Ery-S, listed as 95g): 0.016 µg/mL (≈ 0.0165 µM)
MIC (S. pneumoniae; Streptococcus pneumoniae, ATCC49619, S. pneumoniae ATCC49619, Ery-S, read-out: MIC): 0.03 µg/mL (≈ 0.031 µM)
MIC (S. pneumoniae; Streptococcus pneumoniae, S. pneumoniae 05O173, c-ermB, mef, read-out: MIC): 2 µg/mL (≈ 2.06 µM)
MIC (S. pneumoniae; Streptococcus pneumoniae, S. pneumoniae 07P390, c-ermB, read-out: MIC): 0.12 µg/mL (≈ 0.124 µM)
MIC (S. pneumoniae; Streptococcus pneumoniae, S. pneumoniae PU09, mef, read-out: MIC): 0.06 µg/mL (≈ 0.0619 µM)
MIC (M. catarrhalis): 0.25 µg/mL (≈ 0.258 µM)
MIC (S. pyogenes; S. pyogenes 01-968, Clinical, i-ermB): 0.03 µg/mL (≈ 0.031 µM)
MIC (S. pyogenes; S. pyogenes 12-207, Clinical, mef): 0.5 µg/mL (≈ 0.516 µM)
MIC (S. pyogenes; S. pyogenes 21C303, Clinical, c-ermB): 1 µg/mL (≈ 1.03 µM)
MIC (S. pyogenes; S. pyogenes 21D184, Clinical, c-ermB): 1 µg/mL (≈ 1.03 µM)
MIC (S. pyogenes; S. pyogenes 21D199, Clinical, c-ermB): 1 µg/mL (≈ 1.03 µM)
MIC (S. pyogenes; S. pyogenes 21D200, Clinical, c-ermB): 0.5 µg/mL (≈ 0.516 µM)
MIC (S. pyogenes; S. pyogenes 21K003, Clinical, mef): 1 µg/mL (≈ 1.03 µM)
MIC (S. pyogenes; S. pyogenes 21M063, Clinical, c-ermB): 0.5 µg/mL (≈ 0.516 µM)
MIC (S. pyogenes; S. pyogenes 21W186, Clinical, c-ermTR): 2 µg/mL (≈ 2.06 µM)
MIC (S. pyogenes; Streptococcus pyogenes, S. pyogenes 12-206, c-ermTR, read-out: MIC): 0.12 µg/mL (≈ 0.124 µM)
IC50 (WT S. aureus ribosomes): 380 ± 100 nM
IC50 [3]: 460 ± 230 nM

Reference: PMC11239830, “Synthetic macrolides overcoming MLSBK-resistant pathogens” (Cell Discovery, 2024)
